Measured values reported in US20050090522A1 (priority 2001, published 2005).
pEC50: −log10 of the molar value. Read-outs that look alike come from different tables or passages of the source.

Test system: HIV-1
Experiment: HIV-1 single-round infectious luciferase reporter virus (pseudotype) assay in HeLa CD4 CCR5 cells
Assay type: cell-based
Outline: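 HeLa CD4 CCR5 cells (5×10^4/well, DMEM + 10% FBS) were treated with compound (final <10 μM) and infected with single-round luciferase reporter virus made in 293 cells, at MOI ~0.01. Luciferase was read 72 h post infection. EC50 came from 10-concentration percent-inhibition curves fitted to a four-parameter logistic model.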

[1] = Human immunodeficiency virus 1, HeLa-CD4/CCR5, read-out: EC50 Group from Table 1, Table 4, HeLa CD4 CCR5 cells, single-round luciferase reporter virus
[2] = Human immunodeficiency virus 1, HeLa-CD4/CCR5, read-out: EC50 Group from TABLE 1, HeLa CD4 CCR5 cells, single-round infectious luciferase reporter virus
[3] = Human immunodeficiency virus 1, HeLa-CD4/CCR5, read-out: EC50 Group from Table 1, Table 2-1, HeLa CD4 CCR5 cells, single-round luciferase reporter virus

Row | SMILES | pEC50 [2] | further results
1 | CON(C)C(=O)c1cc(Cl)nc2c(C(=O)C(=O)N3CCN(C(=O)c4ccccc4)C[C@H]3C)c[nH]c12 [Example 58, 1-benzoyl-3-(R)-methyl-4-[(5-chloro-(7-(methoxymethylamino)carbonyl)-4-azaindol-3-yl)-oxoacetyl]piperazine] | – | pEC50 [1]: > 6.00
2 | CCCCCc1ccn(-c2ncc(OC)c3c(C(=O)C(=O)N4CCN(C(=O)c5ccccc5)CC4)c[nH]c23)n1 [Example 250, 1-benzoyl-4-[(4-methoxy-7-(3-n-pentyl-pyrazol-1-yl)-6-azaindol-3-yl)-oxoacetyl]piperazine] | > 6.00 | –
3 | O=C(Nc1cccnc1)c1ncc(F)c2c(C(=O)C(=O)N3CCN(C(=O)c4ccccc4)CC3)c[nH]c12 [Example 147] | > 6.00 | –
4 | C[C@@H]1CN(C(=O)c2ccccc2)CCN1C(=O)C(=O)c1c[nH]c2c(-c3cccc(N)n3)nccc12 [Example 112, (R)-1-benzoyl-3-methyl-4-[(7-(2-amino-pyridin-6-yl)-6-azaindol-3-yl)-oxoacetyl]piperazine] | > 6.00 | –
5 | COc1cnc(-c2cscn2)c2[nH]cc(C(=O)C(=O)N3CCN(C(=O)c4ccccc4)CC3)c12 [Example 174, 1-benzoyl-4-[(4-methoxy-7-(thiazol-4-yl)-6-azaindol-3-yl)-oxoacetyl]piperazine] | > 6.00 | –
6 | Cc1noc(C)c1-c1ccnc2c(C(=O)C(=O)N3CCN(C(=O)c4ccccc4)C[C@H]3C)c[nH]c12 [Example 130] | – | pEC50 [1]: > 6.00
7 | CCc1ncc(-c2ncc(OC)c3c(C(=O)C(=O)N4CCN(C(=O)c5ccccc5)CC4)c[nH]c23)s1 [Example 88, 1-benzoyl-4-[(4-methoxy-7-(2-ethyl-thiazol-5-yl)-6-azaindol-3-yl)-oxoacetyl]piperazine] | > 6.00 | –
8 | COc1cnc(-n2ccc(C(O)C(C)C)n2)c2[nH]cc(C(=O)C(=O)N3CCN(C(=O)c4ccccc4)CC3)c12 (stereo not drawn) [Example 284, 1-benzoyl-4-[(4-methoxy-7-(3-(1-hydroxy-2-methyl-propyl)-pyrazol-1-yl)-6-azaindol-3-yl)-oxoacetyl]piperazine] | > 6.00 | –
9 | COc1cnc(-c2nc(-c3ccccc3)n[nH]2)c2[nH]cc(C(=O)C(=O)N3CCN(C(=O)c4ccccc4)[C@H](C)C3)c12 [Example 335] | – | pEC50 [3]: > 6.00
10 | COc1cnc(-n2ccc(C(C)O)n2)c2[nH]cc(C(=O)C(=O)N3CCN(C(=O)c4ccccc4)[C@H](C)C3)c12 (stereo partly drawn) [Example 235, (R)-1-benzoyl-2-methyl-4-[(4-methoxy-7-(3-(1-hydroxylethyl)-pyrazol-1-yl)-6-azaindol-3-yl)-oxoacetyl]piperazine] | – | pEC50 [3]: > 6.00
11 | COc1cnc(-n2ccc(-c3ccc(C(=O)O)cc3)n2)c2[nH]cc(C(=O)C(=O)N3CCN(C(=O)c4ccccc4)CC3)c12 [Example 292, 1-benzoyl-4-[(4-methoxy-7-(3-(4-hydroxylcarbonylphenyl)-pyrazol-1-yl)-6-azaindol-3-yl)-oxoacetyl]piperazine] | > 6.00 | –
12 | COc1cnc(-n2cc(CO)cn2)c2[nH]cc(C(=O)C(=O)N3CCN(C(=O)c4ccccc4)C[C@H]3C)c12 [Example 237, (R)-1-benzoyl-3-methyl-4-[(4-methoxy-7-(4-hydroxylmethyl-pyrazol-1-yl)-6-azaindol-3-yl)-oxoacetyl]piperazine] | – | pEC50 [3]: > 6.00
13 | C[C@@H]1CN(C(=O)c2ccccc2)CCN1C(=O)C(=O)c1c[nH]c2c(-c3cccs3)nccc12 [Example 9, 1-(benzoyl)-3-®-methyl-4-[(7-(thien-2-yl)-6-azaindol-3-yl)-oxoacetyl]piperazine] | > 6.00 | –
14 | COc1cnc(-c2cncc(N)n2)c2[nH]cc(C(=O)C(=O)N3CCN(C(=O)c4ccccc4)CC3)c12 [Example 46, 1-benzoyl-4-[(4-methoxy-7-(2-amino-pyrazin-6-yl)-6-azaindol-3-yl)-oxoacetyl]piperazine] | > 6.00 | –
15 | COc1ccc(-c2ncc(OC)c3c(C(=O)C(=O)N4CCN(C(=O)c5ccccc5)CC4)c[nH]c23)cn1 [Example 69, 1-benzoyl-4-[(4-methoxy-7-(6-methoxy-pyridin-3-yl)-6-azaindol-3-yl)-oxoacetyl]piperazine] | > 6.00 | –
16 | C[C@@H]1CN(C(=O)c2ccccc2)CCN1C(=O)C(=O)c1c[nH]c2c(-c3cncnc3)ncc(F)c12 [Example 41, 1-benzoyl-3-(R)-methyl-4-[(4-fluoro-7-(pyrimidin-5-yl)-6-azaindol-3-yl)-oxoacetyl]piperazine] | > 6.00 | –
17 | COc1cnc(-c2cnccn2)c2[nH]cc(C(=O)C(=O)N3CCN(C(=O)c4ccno4)CC3)c12 [Example 196] | > 6.00 | –
18 | CCOC(=O)c1cc(-c2ncc(F)c3c(C(=O)C(=O)N4CCN(C(=O)c5ccccc5)CC4)c[nH]c23)n[nH]1 [Example 209] | > 6.00 | –
19 | COc1cnc(-n2ccc(C3(O)CCCC3)n2)c2[nH]cc(C(=O)C(=O)N3CCN(C(=O)c4ccccc4)CC3)c12 [Example 282, 1-benzoyl-4-[(4-methoxy-7-(3-(1-hydroxy-cyclopentyl)-pyrazol-1-yl)-6-azaindol-3-yl)-oxoacetyl]piperazine] | > 6.00 | –
20 | C[C@@H]1CN(C(=O)c2ccccn2)CCN1C(=O)C(=O)c1c[nH]c2c(-c3cnccn3)ncc(F)c12 [Example 141] | > 6.00 | –
21 | CCN(CC)c1nc(-c2ncc(OC)c3c(C(=O)C(=O)N4CCN(C(=O)c5ccccc5)CC4)c[nH]c23)cs1 [Example 70, 1-benzoyl-4-[(4-methoxy-7-(2-diethylamino-thiazol-4-yl)-6-azaindol-3-yl)-oxoacetyl]piperazine] | > 6.00 | –
22 | C[C@@H]1CN(C(=O)c2ccccc2)CCN1C(=O)C(=O)c1c[nH]c2c(-c3ccc(N)cn3)nccc12 [Example 114, (R)-1-benzoyl-3-methyl-4-[(7-(5-amino-pyridin-2-yl)-6-azaindol-3-yl)-oxoacetyl]piperazine] | > 6.00 | –
23 | C[C@@H]1CN(C(=O)c2ccccc2)CCN1C(=O)C(=O)c1c[nH]c2c(-c3ccsc3)ccnc12 [Example 129] | – | pEC50 [1]: > 6.00
24 | O=C(C(=O)N1CCN(C(=O)c2ccccc2)CC1)c1c[nH]c2c(-n3ccnc3)ncc(F)c12 [Example 218] | > 6.00 | –
25 | O=Cc1ccc(-c2ccnc3c(C(=O)C(=O)N4CCN(C(=O)c5ccccc5)CC4)c[nH]c23)s1 [Example 133] | – | pEC50 [1]: > 6.00
26 | COc1cnc(-n2nnc3ccccc32)c2[nH]cc(C(=O)C(=O)N3CCN(C(=O)c4ccccc4)[C@H](C)C3)c12 [Example 246, (R)-1-benzoyl-2-methyl-4-[(4-methoxy-7-(1,2,3-benzotriazol-1-yl)-6-azaindol-3-yl)-oxoacetyl]piperazine] | – | pEC50 [3]: > 6.00
27 | O=C(C(=O)N1CCN(C(=O)c2ccccc2)CC1)c1c[nH]c2c(-c3ccncc3)nccc12 [Example 10, 1-(benzoyl)-4-[(7-(pyridin-4-yl)-6-azaindol-3-yl)-oxoacetyl]piperazine] | > 6.00 | –
28 | COc1cnc(-c2cnc(N)cn2)c2[nH]cc(C(=O)C(=O)N3CCN(C(=O)c4ccccn4)[C@H](C)C3)c12 [Example 267] | – | pEC50 [3]: > 6.00
29 | COc1cnc(-c2cnc(-n3cccc3)nc2)c2[nH]cc(C(=O)C(=O)N3CCN(C(=O)c4ccccc4)CC3)c12 [Example 118, 1-benzoyl-4-[(4-methoxy-7-(2-(pyrrol-1-yl)-pyrimidin-5-yl)-6-azaindol-3-yl)-oxoacetyl]piperazine] | > 6.00 | –
30 | C[C@@H]1CN(C(=O)c2ccccc2)CCN1C(=O)C(=O)c1c[nH]c2c(-c3cnccn3)ccnc12 [Example 52, 1-benzoyl-3-(R)-methyl-4-[(7-(pyrazin-2-yl)-4-azaindol-3-yl)-oxoacetyl]piperazine] | – | pEC50 [1]: > 6.00
